Assay results as given in US20250179055A1, “Substituted 2-(pyrrolidine-3-yl)acetic acid derivative, preparation method and use thereof” (INNOVSTONE THERAPEUTICS LIMITED, priority 2023, published 2025).

Target: Lp(a) assembly in HepG2 cells overexpressing ApoA protein (Homo sapiens (Human), UniProt P08519)
Assay: ELISA assay on screening Lp(a) assembly inhibition
Assay type: cell-based
Details: HepG2 cells overexpressing ApoA protein, 24 h, ELISA of supernatant
Procedure: Test Example 1 and Methods of ELISA Assay on Screening Lp(a) Assembly Inhibition
• 1) Preheated the culture media, DPBS, and pancreatin in a 37° C. water bath in advance. • 2) Digested cells with pancreatin, transferred the cell suspension to a 15 mL centrifuge tube, and centrifuged at 1000 rpm for 5 min. • 3) Resuspended the cells with culture media and transferred the cell suspension to a new T75 cell culture flask. • 4) Cultured at 37° C. in a 5% CO2 incubator.
• 1) Seeded HepG2 cells overexpressing of ApoA protein into a 96-well plate at 100 μL per well and incubated overnight for attachment. • 2) Replaced with fresh culture media the next day, then added diluted compounds, and cultured the cell plate in a 5% CO2, 37° C. incubator for 24 h.
• 1) Added 10 μL of 1.5 M EACA to each well. • 2) Centrifuged at 1000 rpm for 1 min, and transferred 100 μL of cell culture supernatant to a pre-coated ELISA plate.
• 1) Added 100 μL of capture antibody to each well of a pre-coated ELISA plate and incubated overnight at 25° C. • 2) Added 300 μL of washing solution to each well and washed 5 times for 1 min each time. • 3) Added 100 μL of blocking solution to each well and incubated at 25° C. for 2 h. • 4) Added 300 μL of washing solution to each well and washed 5 times for 1 min each time. • 5) Added 100 μL of sample to each well and incubated at 25° C. for 1 h. • 6) Added 300 μL of washing solution to each well and washed 5 times for 1 min each time. • 7) Added 100 μL of detection antibody to each well and incubated at 25° C. for 1 h. • 8) Added 300 μL of washing solution to each well and washed 5 times for 1 min each time. • 9) Added 100 μL substrate solution (Color Reagent A: Color Reagent B, 1:1) to each well and incubated for 20 min at 25° C. in the dark. • 10) Added […] of stop solution to each well, gently blowed and sucked several times with the pipette tip, and read within 5 min.
[formula] • X: cpd concentration • Y: inhibition % • Top and Bottom: Plateaus in same units as Y • log IC50: same log units as X • HillSlope: Slope factor or Hill slope

Lp(a) assembly in HepG2 cells overexpressing ApoA protein, sequence (P08519 20-2040): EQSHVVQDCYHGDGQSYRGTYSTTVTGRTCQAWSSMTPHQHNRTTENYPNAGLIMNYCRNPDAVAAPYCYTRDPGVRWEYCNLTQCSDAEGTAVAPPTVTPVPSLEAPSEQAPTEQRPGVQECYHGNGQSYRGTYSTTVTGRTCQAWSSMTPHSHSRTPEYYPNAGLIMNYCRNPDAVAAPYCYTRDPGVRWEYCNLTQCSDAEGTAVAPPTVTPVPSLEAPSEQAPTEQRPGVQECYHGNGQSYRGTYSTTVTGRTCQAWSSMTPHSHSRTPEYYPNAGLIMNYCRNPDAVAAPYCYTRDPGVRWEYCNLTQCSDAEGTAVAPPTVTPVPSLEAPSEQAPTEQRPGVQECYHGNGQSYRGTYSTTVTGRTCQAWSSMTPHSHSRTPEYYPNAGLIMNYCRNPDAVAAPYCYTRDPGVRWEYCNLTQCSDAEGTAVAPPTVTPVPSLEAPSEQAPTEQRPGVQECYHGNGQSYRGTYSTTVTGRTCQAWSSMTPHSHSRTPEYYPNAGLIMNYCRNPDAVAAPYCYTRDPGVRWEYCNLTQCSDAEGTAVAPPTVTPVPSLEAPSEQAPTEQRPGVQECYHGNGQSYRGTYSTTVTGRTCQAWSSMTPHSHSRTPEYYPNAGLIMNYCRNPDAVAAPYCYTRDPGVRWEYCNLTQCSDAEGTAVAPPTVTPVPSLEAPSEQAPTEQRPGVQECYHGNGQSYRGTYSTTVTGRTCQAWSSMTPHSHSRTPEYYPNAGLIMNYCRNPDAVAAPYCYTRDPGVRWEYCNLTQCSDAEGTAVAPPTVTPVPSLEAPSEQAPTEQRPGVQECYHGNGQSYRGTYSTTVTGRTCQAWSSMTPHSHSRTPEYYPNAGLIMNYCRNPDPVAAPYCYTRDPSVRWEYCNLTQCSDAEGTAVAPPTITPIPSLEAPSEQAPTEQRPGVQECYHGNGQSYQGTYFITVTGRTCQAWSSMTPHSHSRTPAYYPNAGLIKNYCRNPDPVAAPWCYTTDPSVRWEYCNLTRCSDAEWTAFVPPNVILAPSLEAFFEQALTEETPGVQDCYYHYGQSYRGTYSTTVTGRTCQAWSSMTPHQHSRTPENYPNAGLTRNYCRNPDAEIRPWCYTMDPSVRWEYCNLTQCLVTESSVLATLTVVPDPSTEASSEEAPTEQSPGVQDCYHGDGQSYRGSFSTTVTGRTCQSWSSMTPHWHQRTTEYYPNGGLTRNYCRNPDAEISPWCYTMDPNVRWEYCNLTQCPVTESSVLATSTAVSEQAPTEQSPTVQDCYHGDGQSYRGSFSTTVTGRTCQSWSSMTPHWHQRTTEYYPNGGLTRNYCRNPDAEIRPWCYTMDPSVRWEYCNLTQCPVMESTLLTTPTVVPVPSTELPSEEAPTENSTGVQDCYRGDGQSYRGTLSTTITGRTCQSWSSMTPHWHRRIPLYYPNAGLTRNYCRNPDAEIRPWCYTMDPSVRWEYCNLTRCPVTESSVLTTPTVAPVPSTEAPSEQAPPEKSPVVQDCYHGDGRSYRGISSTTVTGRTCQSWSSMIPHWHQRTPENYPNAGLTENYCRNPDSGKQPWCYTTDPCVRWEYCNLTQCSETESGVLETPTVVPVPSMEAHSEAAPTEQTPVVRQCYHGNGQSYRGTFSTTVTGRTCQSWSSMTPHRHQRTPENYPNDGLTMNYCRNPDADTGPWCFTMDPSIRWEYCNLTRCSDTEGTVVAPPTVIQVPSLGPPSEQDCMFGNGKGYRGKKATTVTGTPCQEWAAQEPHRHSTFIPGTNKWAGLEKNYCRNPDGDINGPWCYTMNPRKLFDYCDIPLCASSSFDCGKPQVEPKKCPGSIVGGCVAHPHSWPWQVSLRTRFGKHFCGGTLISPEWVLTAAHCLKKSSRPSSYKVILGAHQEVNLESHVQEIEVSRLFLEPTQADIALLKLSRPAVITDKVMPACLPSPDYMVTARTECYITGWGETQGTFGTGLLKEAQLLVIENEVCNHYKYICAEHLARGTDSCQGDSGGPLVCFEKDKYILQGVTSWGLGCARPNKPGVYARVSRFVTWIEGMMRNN

SMILES | IC50
O=C(O)C(Cc1cccc(C(=O)N(CCOc2cccc(C[C@H](C(=O)O)[C@H]3CCNC3)c2)Cc2cccc(C[C@H](C(=O)O)[C@H]3CCNC3)c2)c1)C1CCNC1 (stereo in doubt) [Compound 97, (S)-3-(3-((3-((S)-2-carboxy-2-((R)-pyrrolidin-3-yl)ethyl)-N-(2-(3-((S)-2-carboxy-2-((R)-pyrrolidin-3-yl)ethyl)phenoxy)ethyl)benzamido)methyl)phenyl)-2-((R)-pyrrolidin-3-yl)propanoic acid] | 1.46 nM
O=C(Cc1cccc(CC(C(=O)O)C2CCNC2)c1)NCc1cccc(C[C@H](C(=O)O)[C@H]2CCNC2)c1 (stereo in doubt) [Compound 143, (S)-3-(3-(2-((3-((S)-2-carboxy-2-((R)-pyrrolidin-3-yl)ethyl)benzyl)amino)-2-oxoethyl)phenyl)-2-((R)-pyrrolidin-3-yl)propanoic acid] | 3.81 nM
N[C@@H](CCCCN(Cc1cc(F)cc(C[C@H](C(=O)O)[C@H]2CCNC2)c1)Cc1cc(F)cc(C[C@H](C(=O)O)[C@H]2CCNC2)c1)C(=O)O [Compound 5, (2S,2′S)-3,3′-(((((S)-5-amino-5-carboxypentyl)azanediyl)bis(methylene))bis(5-fluoro-3,1-phenylene))bis(2-((R)-pyrrolidin-3-yl)propanoic acid)] | 4.12 nM
O=C(O)[C@@H](Cc1cccc(CN(Cc2cccc(C[C@H](C(=O)O)[C@H]3CCNC3)c2)C(=O)c2cc(F)cc(C[C@H](C(=O)O)[C@H]3CCNC3)c2)c1)[C@H]1CCNC1 [Compound 12, (2S,2′S)-3,3′-((((3-((S)-2-carboxy-2-((R)-pyrrolidin-3-yl)ethyl)-5-fluorobenzoyl)azanediyl)bis(methylene))bis(3,1-phenylene))bis(2-((R)-pyrrolidin-3-yl)propanoic acid)] | 1.17 nM
O=C(CN(CCOc1cccc(C[C@H](C(=O)O)[C@H]2CCNC2)c1)CC(=O)c1cccc(C[C@H](C(=O)O)[C@H]2CCNC2)c1)c1cccc(C[C@H](C(=O)O)[C@H]2CCNC2)c1 [Compound 80, (2S,2′S)-3,3′-((2,2′-((2-(3-((S)-2-carboxy-2-((R)-pyrrolidin-3-yl)ethyl)phenoxy)ethyl)azanediyl)bis(acetyl))bis(3,1-phenylene))bis(2-((R)-pyrrolidin-3-yl)propanoic acid)] | 2.31 nM
[2H]C([2H])(c1cccc(C[C@H](C(=O)O)[C@H]2CCNC2)c1)N(Cc1cccc(C[C@H](C(=O)O)[C@H]2CCNC2)c1)C([2H])([2H])c1cccc(C[C@H](C(=O)O)[C@H]2CCNC2)c1 [Compound 93, (2S,2′S)-3,3′-((((3-((S)-2-carboxy-2-((R)-pyrrolidin-3-yl)ethyl)benzyl)azanediyl)bis(methylene-d2))bis(3,1-phenylene))bis(2-((R)-pyrrolidin-3-yl)propanoic acid)] | 0.81 nM
O=C(O)[C@@H](Cc1cccc(CCN(Cc2cccc(C[C@H](C(=O)O)[C@H]3CCNC3)c2)C(=O)c2cccc(C[C@H](C(=O)O)[C@H]3CCNC3)c2)c1)[C@H]1CCNC1 [Compound 99, (S)-3-(3-(2-(3-((S)-2-carboxy-2-((R)-pyrrolidin-3-yl)ethyl)-N-(3-((S)-2-carboxy-2-((R)-pyrrolidin-3-yl)ethyl)benzyl)benzamido)ethyl)phenyl)-2-((R)-pyrrolidin-3-yl)propanoic acid] | 0.96 nM
O=C(O)[C@@H](Cc1cc2c(CN(Cc3cccc4sc(C[C@H](C(=O)O)[C@H]5CCNC5)cc34)Cc3cccc4sc(C[C@H](C(=O)O)[C@H]5CCNC5)cc34)cccc2s1)[C@H]1CCNC1 [Compound 101, (2S,2′S,2″S)-3,3′,3″-((nitrilotris(methylene))tris(benzo[b]thiophene-4,2-diyl))tris(2-((R)-pyrrolidin-3-yl)propanoic acid)] | 2.71 nM
O=C(O)[C@@H](Cc1cc(CN(Cc2cc(C[C@H](C(=O)O)[C@H]3CCNC3)cc3ccoc23)Cc2cc(C[C@H](C(=O)O)[C@H]3CCNC3)cc3ccoc23)c2occc2c1)[C@H]1CCNC1 [Compound 102, (2S,2′S,2″S)-3,3′,3″-((nitrilotris(methylene))tris(benzofuran-7,5-diyl))tris(2-((R)-pyrrolidin-3-yl)propanoic acid)] | 0.74 nM
O=C(O)[C@@H](Cc1cc2ccc(CN(Cc3ccc4cc(C[C@H](C(=O)O)[C@H]5CCNC5)sc4c3)Cc3ccc4cc(C[C@H](C(=O)O)[C@H]5CCNC5)sc4c3)cc2s1)[C@H]1CCNC1 [Compound 103, (2S,2′S,2″S)-3,3′,3″-((nitrilotris(methylene))tris(benzo[b]thiophene-6,2-diyl))tris(2-((R)-pyrrolidin-3-yl)propanoic acid)] | 2.11 nM

Continued, values first:

IC50 | SMILES
1.13 nM | O=C(O)[C@@H](Cc1cccc(CN(Cc2cccc(C[C@H](C(=O)O)[C@H]3CCNC3)c2)Cc2coc3ccc(C[C@H](C(=O)O)[C@H]4CCNC4)cc23)c1)[C@H]1CCNC1 [Compound 6, (2S,2′S)-3,3′-(((((5-((S)-2-carboxy-2-((R)-pyrrolidin-3-yl)ethyl)benzofuran-3-yl)methyl)azanediyl)bis(methylene))bis(3,1-phenylene))bis(2-((R)-pyrrolidin-3-yl)propanoic acid)]
0.89 nM | O=C(O)[C@@H](Cc1cccc(CN(Cc2cccc(C[C@H](C(=O)O)[C@H]3CCNC3)c2)Cc2cc3ccc(C[C@H](C(=O)O)[C@H]4CCNC4)cc3s2)c1)[C@H]1CCNC1 [Compound 11, (2S,2′S)-3,3′-(((((6-((S)-2-carboxy-2-((R)-pyrrolidin-3-yl)ethyl)benzo[b]thiophen-2-yl)methyl)azanediyl)bis(methylene))bis(3,1-phenylene))bis(2-((R)-pyrrolidin-3-yl)propanoic acid)]
1.03 nM | O=C(O)[C@@H](Cc1ccc2occ(CN(Cc3coc4ccc(C[C@H](C(=O)O)[C@H]5CCNC5)cc34)Cc3coc4ccc(C[C@H](C(=O)O)[C@H]5CCNC5)cc34)c2c1)[C@H]1CCNC1 [Compound 47, (2S,2′S,2″S)-3,3′,3″-((nitrilotris(methylene))tris(benzofuran-3,5-diyl))tris(2-((R)-pyrrolidin-3-yl)propanoic acid)]
3.22 nM | O=C(O)[C@@H](Cc1ccc2scc(CN(Cc3csc4ccc(C[C@H](C(=O)O)[C@H]5CCNC5)cc34)Cc3csc4ccc(C[C@H](C(=O)O)[C@H]5CCNC5)cc34)c2c1)[C@H]1CCNC1 [Compound 49, (2S,2′S,2″S)-3,3′,3″-((nitrilotris(methylene))tris(benzo[b]thiophene-3,5-diyl))tris(2-((R)-pyrrolidin-3-yl)propanoic acid)]
0.87 nM | O=C(O)[C@@H](Cc1cccc(CCN(CCc2cccc(C[C@H](C(=O)O)[C@H]3CCNC3)c2)CCc2cccc(C[C@H](C(=O)O)[C@H]3CCNC3)c2)c1)[C@H]1CCNC1 [Compound 65, (2S,2′S,2″S)-3,3′,3″-((nitrilotris(ethane-2,1-diyl))tris(benzene-3,1-diyl))tris(2-((R)-pyrrolidin-3-yl)propanoic acid)]
8.55 nM | O=C(O)[C@@H](Cc1ccc2occ(CCN(CCc3coc4ccc(C[C@H](C(=O)O)[C@H]5CCNC5)cc34)CCc3coc4ccc(C[C@H](C(=O)O)[C@H]5CCNC5)cc34)c2c1)[C@H]1CCNC1 [Compound 67, (2S,2′S,2″S)-3,3′,3″-((nitrilotris(ethane-2,1-diyl))tris(benzofuran-3,5-diyl))tris(2-((R)-pyrrolidin-3-yl)propanoic acid)]
0.54 nM | O=C(O)[C@@H](Cc1cccc(CCN(CCOc2cccc(C[C@H](C(=O)O)[C@H]3CCNC3)c2)CCc2cccc(C[C@H](C(=O)O)[C@H]3CCNC3)c2)c1)[C@H]1CCNC1 [Compound 71, (2S,2′S)-3,3′-((((2-(3-((S)-2-carboxy-2-((R)-pyrrolidin-3-yl)ethyl)phenoxy)ethyl)azanediyl)bis(ethane-2,1-diyl))bis(3,1-phenylene))bis(2-((R)-pyrrolidin-3-yl)propanoic acid)]
0.85 nM | O=C(O)[C@@H](Cc1cccc(CCN(CCc2cccc(C[C@H](C(=O)O)[C@H]3CCNC3)c2)C(=O)COc2cccc(C[C@H](C(=O)O)[C@H]3CCNC3)c2)c1)[C@H]1CCNC1 [Compound 81, (2S,2′S)-3,3′-((((2-(3-((S)-2-carboxy-2-((R)-pyrrolidin-3-yl)ethyl)phenoxy)acetyl)azanediyl)bis(ethane-2,1-diyl))bis(3,1-phenylene))bis(2-((R)-pyrrolidin-3-yl)propanoic acid)]
0.65 nM | [2H]C([2H])(c1cccc(C[C@H](C(=O)O)[C@H]2CCNC2)c1)N(Cc1cccc(C[C@H](C(=O)O)[C@H]2CCNC2)c1)Cc1cccc(C[C@H](C(=O)O)[C@H]2CCNC2)c1 [Compound 94, (2S,2′S)-3,3′-(((((3-((S)-2-carboxy-2-((R)-pyrrolidin-3-yl)ethyl)phenyl)methyl-d2)azanediyl)bis(methylene))bis(3,1-phenylene))bis(2-((R)-pyrrolidin-3-yl)propanoic acid)]
